The source of these data is patent EP2033962A1, “Tetracyclic indolopyridines as EG5 inhibitors” (4SC AG, priority 2007, dated 2009).

This assay concerns RKO p27 uninduced (proliferating). Briefly: Alamar Blue cell viability assay, anti-proliferative / cytotoxic activity on proliferating cells. It counts as cell-based. Conditions: Homo sapiens, RKOp27; RKO colon cancer cells, absence of the inducer Ponasterone A, 72 hours incubation; read-out: -log EC50 [mol/l] RKO p27 uninduced (proliferating) (converted). On the procedure:
The anti-proliferative / cytotoxic activity of the compounds described herein can be tested on subclones of RKO human colon adenocarcinoma cells (Schmidt et al., Oncogene 19, 2423-2429; 2000) using the Alamar Blue cell viability assay (described in O'Brien et al. Eur J Biochem 267, 5421-5426, 2000). The compounds are dissolved as 10 mM solutions in DMSO and subsequently diluted in semi-logarithmic steps. DMSO dilutions are further diluted 1:100 v:v into Dulbecco's modified Eagle's medium (DMEM) containing 10% fetal calf serum to a final concentration twice as much as the final concentration in the test. RKO subclones are seeded into 96 well flat bottom plates at a density of 4000 cells per well in a volume of 50 µl per well. 24 hours after seeding the 50 µl each of the compound dilutions in DMEM medium are added into each well of the 96 well plate. Each compound dilution is tested as triplicates. Wells containing untreated control cells are filled with 50 µl DMEM medium containing 1% DMSO. The cells are then incubated with the substances for 72 hours at 37°C in a humidified atmosphere containing 5% carbon dioxide. To determine the viability of the cells, 10 µl of an Alamar Blue solution (Biosource) are added and the fluorescence is measured at an extinction of 544 nm and an emission of 590 nm. For the calculation of the cell viability the emission value from untreated cells is set as 100% viability and the emission rates of treated cells are set in relation to the values of untreated cells. Viabilities are expressed as % values. The Graphpad Prism program is used for the calculation of EC50 values for anti-proliferative / cytotoxic activity out of the obtained dose-response curves.
To determine the cell cycle specific mode of action, subclones of RKO colon adenocarcinoma cells (RKOp21 or RKOp27 as described by Schmidt et al. in Oncogene 19, 2423-2429; 2000) are seeded into 96 well flat bottom plates at a density of 16000 cells per well in a volume of 50 µl per well in DMEM growth medium with 10% FCS containing 10 µM Ponasterone A. 24 hours after seeding the 50 µl each of the compound dilutions in DMEM medium are added into each well of the 96-well plate. Each compound dilution is tested as triplicates. Wells containing untreated control cells are filled with 50 µl DMEM medium containing 1% DMSO. The cells are then incubated with the substances for 72 hours at 37°C in a humidified atmosphere containing 5% carbon dioxide. To determine the viability of the cells, 10 µl of an Alamar Blue solution (Biosource) are added and the fluorescence is measured at an extinction of 544 nm and an emission of 590 nm. For the calculation of the cell viability the emission value from untreated cells is set as 100% viability and the emission rates of treated cells are set in relation to the values of untreated cells. Viabilities are expressed as % values. The Graphpad Prism program (GraphPad Software, Inc) is used for the calculation of EC50 values out of the obtained dose-response curves. Viability is compared of proliferating cells grown in the absence of the inducer Ponasterone A, versus viability of cells arrested by the expression of ectopic p27Kip1 induced by Ponasterone A.
For the compound `CCN(CC)CCCN1CC(=O)N2[C@H](c3cccc(O)c3)c3[nH]c4ccc(OC)cc4c3C[C@@]2(C)C1=O` (racemic) [Example 16, (6RS,12aSR)-2-(3-Diethylamino-n-propyl)-6-(3-hydroxy-phenyl)-10-methoxy-12a-methyl-2,3,6,7,12,12a-hexahydro-pyrazino[1',2':1,6]pyrido[3,4-b]indole-1,4-dione], the EC50 is ≤ 100 nM.
With `COc1ccc2[nH]c3c(c2c1)C[C@@]1(C)C(=O)N(CCCN(C)C)CC(=O)N1[C@@H]3c1cccc(O)c1` (racemic) [Example 12, (6RS,12aSR)-2-(3-Dimethylamino-n-propyl)-6-(3-hydroxy-phenyl)-10-methoxy-12a-methyl-2,3,6,7,12,12a-hexahydro-pyrazino[1',2':1,6]pyrido[3,4-b]indole-1,4-dione], the EC50 is ≤ 100 nM.
The figure for `O=C1[C@@H]2Cc3c([nH]c4ccccc34)[C@@H](c3cccc(O)c3)N2C(=O)CN1CCN1CCCC1` (racemic) [Example 6, (6RS,12aSR)-6-(3-Hydroxy-phenyl)-2-(2-pyrrolidin-1-yl-ethyl)-2,3,6,7,12,12a-hexahydro-pyrazino[1',2':1,6]pyrido[3,4-b]indole-1,4-dione] is 100 to 1000 nM.
For `O=C1[C@@H]2Cc3c([nH]c4ccccc34)[C@@H](c3cccc(O)c3)N2C(=O)CN1CCN1CCCCC1` (racemic) [Example 7, (6RS,12aSR)-6-(3-Hydroxy-phenyl)-2-(2-piperidin-1-yl-ethyl)-2,3,6,7,12,12a-hexahydro-pyrazino[1',2':1,6]pyrido[3,4-b]indole-1,4-dione], the EC50 was 100 to 1000 nM.
Turning to `COc1ccc2[nH]c3c(c2c1)C[C@@]1(C)C(=O)N(CCCN2CCOCC2)CC(=O)N1[C@@H]3c1cccc(O)c1` (racemic) [Example 14, (6RS,12aSR)-6-(3-Hydroxy-phenyl)-10-methoxy-12a-methyl-2-(3-morpholin-4-yl-n-propyl)-2,3,6,7,12,12a-hexahydro-pyrazino[1',2':1,6]pyrido[3,4-b]indole-1,4-dione], the EC50 is 100 to 1000 nM.
The figure for `CCN(CC)CCN1CC(=O)N2[C@H](c3cccc(O)c3)c3[nH]c4ccc(OC)cc4c3C[C@@]2(C)C1=O` (racemic) [Example 15, (6RS,12aSR)-2-(2-Diethylamino-ethyl)-6-(3-hydroxy-phenyl)-10-methoxy-12a-methyl-2,3,6,7,12,12a-hexahydro-pyrazino[1',2':1,6]pyrido[3,4-b]indole-1,4-dione] is 100 to 1000 nM.
As for `COc1ccc2[nH]c3c(c2c1)C[C@@]1(C)C(=O)N(C)CC(=O)N1[C@@H]3c1cccc(O)c1` (racemic) [Example 10, (6RS,12aSR)-6-(3-Hydroxy-phenyl)-10-methoxy-2,12a-dimethyl-2,3,6,7,12,12a-hexahydro-pyrazino[1',2':1,6]pyrido[3,4-b]indole-1,4-dione], the figure is 100 to 1000 nM.
Regarding `COc1ccc2[nH]c3c(c2c1)C[C@@]1(C)C(=O)N(CCCN2CCCC2)CC(=O)N1[C@@H]3c1cccc(O)c1` (racemic) [Example 28, (6RS,12aSR)-6-(3-Hydroxy-phenyl)-10-methoxy-12a-methyl-2-(3-pyrrolidin-1-yl-n-propyl)-2,3,6,7,12,12a-hexahydro-pyrazino[1',2':1,6]pyrido[3,4-b]indole-1,4-dione], the EC50 is 100 to 1000 nM.
Turning to `COc1ccc2[nH]c3c(c2c1)C[C@@]1(C)C(=O)N(CCN2CCOCC2)CC(=O)N1[C@@H]3c1cccc(O)c1` (racemic) [Example 13, (6RS,12aSR)-6-(3-Hydroxy-phenyl)-10-methoxy-12a-methyl-2-(2-morpholin-4-yl-ethyl)-2,3,6,7,12,12a-hexahydro-pyrazino[1',2':1,6]pyrido[3,4-b]indole-1,4-dione], the EC50 was 100 to 1000 nM.
The figure for `COc1ccc2[nH]c3c(c2c1)C[C@@]1(C)C(=O)N(CCN2CCCC2)CC(=O)N1[C@@H]3c1cccc(O)c1` (racemic) [Example 9, (6RS,12aSR)-6-(3-Hydroxy-phenyl)-10-methoxy-12a-methyl-2-(2-pyrrolidin-1-yl-ethyl)-2,3,6,7,12,12a-hexahydro-pyrazino[1',2':1,6]pyrido[3,4-b]indole-1,4-dione] is ≤ 100 nM; for `COc1ccc2[nH]c3c(c2c1)C[C@@]1(C)C(=O)N(CCN(C(C)C)C(C)C)CC(=O)N1[C@@H]3c1cccc(O)c1` (racemic) [Example 19, (6RS,12aSR)-2-(2-Diisopropylamino-ethyl)-6-(3-hydroxy-phenyl)-10-methoxy-12a-methyl-2,3,6,7,12,12a-hexahydro-pyrazino[1',2':1,6]pyrido[3,4-b]indole-1,4-dione] it is ≤ 100 nM.
Take `COc1ccc2[nH]c3c(c2c1)C[C@@]1(C)C(=O)N(CCNC(C)C)CC(=O)N1[C@@H]3c1cccc(O)c1` (racemic) [Example 25, (6RS,12aSR)-6-(3-Hydroxy-phenyl)-2-(2-isopropylamino-ethyl)-10-methoxy-12a-methyl-2,3,6,7,12,12a-hexahydro-pyrazino[1',2':1,6]pyrido[3,4-b]indole-1,4-dione]: the EC50 is ≤ 100 nM.
The figure for `COc1ccc2[nH]c3c(c2c1)C[C@@]1(C)C(=O)N(CCCN2CCCCC2)CC(=O)N1[C@@H]3c1cccc(O)c1` (racemic) [Example 27, (6RS,12aSR)-6-(3-Hydroxy-phenyl)-10-methoxy-12a-methyl-2-(3-piperidin-1-yl-n-propyl)-2,3,6,7,12,12a-hexahydro-pyrazino[1',2':1,6]pyrido[3,4-b]indole-1,4-dione] is 100 to 1000 nM; for `COc1ccc2[nH]c3c(c2c1)C[C@@]1(C)C(=O)N(CCN(C)C)CC(=O)N1[C@@H]3c1cccc(O)c1` (racemic) [Example 8, (6RS,12aSR)-2-(2-Dimethylamino-ethyl)-6-(3-hydroxy-phenyl)-10-methoxy-12a-methyl-2,3,6,7,12,12a-hexahydro-pyrazino[1',2':1,6]pyrido[3,4-b]indole-1,4-dione] it is ≤ 100 nM.
Take `COc1ccc2[nH]c3c(c2c1)C[C@@]1(C)C(=O)N(CCN2CCCCC2)CC(=O)N1[C@@H]3c1cccc(O)c1` (racemic) [Example 11, (6RS,12aSR)-6-(3-Hydroxy-phenyl)-10-methoxy-12a-methyl-2-(2-piperidin-1-yl-ethyl)-2,3,6,7,12,12a-hexahydro-pyrazino[1',2':1,6]pyrido[3,4-b]indole-1,4-dione]: the EC50 is ≤ 100 nM.
